Measurements reported in patent publication US20180303809A1, “TREATMENT OF BURN PAIN BY TRPV1 MODULATORS” (Purdue Pharma L.P., priority 2013, published 2018).

Key:
Format in all cases: in vivo, rat
[1] = system: male Sprague-Dawley rats; assay: Paw pressure assay, mechanical hyperalgesia (PWT) in thermal burn pain model; conditions: rat burn injury 55° C. 24 s, 10 mg/kg PO
Experimental: (§1) Test Animals: Each experiment used male Sprague-Dawley rats weighing between 190-260 g at the time of thermal burn injury. The rats were housed two per cage, and were allowed to acclimate to their environment for at least six days before testing began. The rats had free access to food and water at all times, except during testing and prior to oral (PO) administration of a test compound, when food was removed about 16 hours before dosing. The rats were divided into treatment groups, and one of the following compounds was administered to each group at the dose and by the route of administration indicated in Tables 5.2A to 5.2C, 5.3A and 5.3B, and 5.4A and 5.4B: ketorolac (Sigma-Aldrich, St. Louis, Mo.), AMG 517 (selective TRPV1 antagonist described in Em. Doherty et al., “Novel vanilloid receptor-1 antagonists:2. Structure-activity relationships of 4-oxopyrimidines leading to the selection of a clinical candidate,” J Med Chem 50:3515-3527 (2007).) (Purdue Pharma L. P., Cranbury, N.J.), indomethacin (Alexis Biochemicals, Farmingdale, N.Y.), gabapentin (Bosche Scientific, New Brunswick, N.J.), or (S)-3-chloro-5-(1,2-dihydroxyethyl)-N-(5-(trifluoromethyl)pyridin-2-yl)-5′,6′-dihydro-[2,4′-bipyridine]-1′(2′H)-carboxamide (Compound 1). The control groups were administered the vehicle for the compound of formula (I). The volume of administration for PO treatment was 5 ml/kg, and was the same for all treatment groups. Volume of administration for intraperitoneal (i.p.) drug administration was 2 ml/kg.
(§2) To assess the actions of a compound of formula (I) for the treatment or prevention of burn pain, a model of thermal burn pain was used. A thermal burn injury was induced under isofluorane/O2 inhalation anesthesia. To assess mechanical hyperalgesia and weight bearing, a thermal injury was produced by immersing the left hind paw into water maintained at 55° C. for 24 seconds. The left hind paw of non-injured control animals was immersed in 22° C. water for 24 seconds. To assess thermal hyperalgesia, a thermal injury was produced by immersing the left hindpaw into water maintained at 50° C. for 48 seconds; the left hind-paw of non-injured control animals was immersed in 22° C. water for 48 seconds. The animals were assessed for response to noxious mechanical stimuli by determining PWT for mechanical hyperalgesia, weight bearing difference between the injured or non-injured side, or response to noxious thermal stimuli by determining PWL for thermal hyperalgesia, all as described below, prior to drug administration (baseline), then again at 1, 3 and 5 hours after induction of burn injury.
The paw pressure assay was used to assess mechanical hyperalgesia. For this assay, hind paw withdrawal thresholds (PWT) to a noxious mechanical stimulus were determined using an analgesimeter (Model 7200, commercially available from Ugo Basile of Italy) as described in C. Stein, “Unilateral Inflammation of the Hindpaw in Rats as a Model of Prolonged Noxious Stimulation: Alterations in Behavior and Nociceptive Thresholds,” Pharmacol. Biochem. and Behavior 31:451-455 (1988). The rat's paw was placed on a small platform, and weight was applied in a graded manner up to a maximum of 250 grams. The endpoint was taken as the weight at which the paw was completely withdrawn. PWT was determined once for each rat at each time point, wherein the affected (ipsilateral; same side as the injury) rear paw was tested. […] All drug treatment groups were compared to the vehicle control group (i.e. injured, administered only the vehicle).

[2] = system: male Sprague-Dawley rats; assay: Plantar test, thermal hyperalgesia (PWL) in thermal burn pain model; conditions: rat burn injury 50° C. 48 s
Experimental: as §1, §2
The plantar test was used to assess thermal hyperalgesia. For this test, hind paw withdrawal latencies (PWL) to a noxious thermal stimulus were determined using a plantar test apparatus (commercially available from Ugo Basile of Italy) following the technique described by K. Hargreaves et al., “A New and Sensitive Method for Measuring Thermal Nociception in Cutaneous Hyperalgesia,” Pain 32(1):77-88 (1988). The maximum exposure time was set at 32 seconds to avoid tissue damage and any directed paw withdrawal from the heat source is taken as the end point. Three latencies were determined at each time point and averaged.

[3] = system: male Sprague-Dawley rats; assay: Hind limb weight bearing (incapacitance meter, % WL) in thermal burn pain model; conditions: rat burn injury 55° C. 24 s, 10 mg/kg PO
Experimental: as §1, §2
A commercially available incapacitance meter was used to determine the weight distribution on the two hind paws of the animal (Linton Incapacitance Tester (Linton Instrumentation, Norfolk, UK)). The weight bearing difference (WBD) between the injured and non-injured hindpaw was measured. The animal was placed in the testing chamber that allows the animal to stand normally, distributing its body weight on the hind limbs for the test. Each hind paw was positioned on a separate pressure sensitive pad, which independently measures the pressure applied by each limb. The device continuously collects data after either a force threshold has been exceeded, or the investigator depresses the start pad. Rats were allowed to acclimate when placed on the apparatus, and when they were stationary, the force exerted was then continuously monitored for 3 s. The endpoint was the amount of pressure applied to each limb over time. Three readings were taken for each rat at each time point, and the average used for data analysis. WBD was expressed as “% WL”, i.e. the percentage of weight borne on the burn-injured left hind paw, using the following formula: […]
where WLP is the weight on the left hind paw and WRP is the weight on the right (untreated) hind paw. The 50% value of % WL corresponds to an equal weight distribution across both hind paws. […]

[4] = baseline (prior to drug administration)
[5] = 10 mg/kg PO, 1 h after administration
[6] = 10 mg/kg PO, 3 h after administration
[7] = 10 mg/kg PO, 5 h after administration
[8] = 30 mg/kg PO, 1 h after administration
[9] = 30 mg/kg PO, 3 h after administration
[10] = 30 mg/kg PO, 5 h after administration

Compound: O=C(c1ccccc1)c1ccc2n1CCC2C(=O)O (stereo not shown) [Ketorolac, ketorolac]
- % Decrease from Baseline (mean ± S.E.M.) of Paw Withdrawal Threshold ([1]; 1 h after administration): 66 ± 2.2%
- Paw Withdrawal Threshold (g) (mean ± S.E.M.) ([1]; 1 h after administration): 84 ± 6.1 g
- % Decrease from Baseline (mean ± S.E.M.) of Paw Withdrawal Threshold ([1]; 3 h after administration): 60 ± 3.8%
- Paw Withdrawal Threshold (g) (mean ± S.E.M.) ([1]; 3 h after administration): 97 ± 7.5 g
- % Decrease from Baseline (mean ± S.E.M.) of Paw Withdrawal Threshold ([1]; 5 h after administration): 63 ± 34%
- Paw Withdrawal Threshold (g) (mean ± S.E.M.) ([1]; 5 h after administration): 91 ± 7.1 g
- Paw Withdrawal Threshold (g) (mean ± S.E.M.) [1, 4]: 246 ± 4.5 g
- % Change from Baseline (mean ± S.E.M.) of Paw Withdrawal Latency [2, 5]: −22.3 ± 6.30%
- Paw Withdrawal Latency (sec) (mean ± S.E.M.) [2, 5]: 9.2 ± 0.96 s
- % Change from Baseline (mean ± S.E.M.) of Paw Withdrawal Latency [2, 6]: −6.7 ± 5.55%
- Paw Withdrawal Latency (sec) (mean ± S.E.M.) [2, 6]: 11.9 ± 1.27 s
- % Change from Baseline (mean ± S.E.M.) of Paw Withdrawal Latency [2, 7]: −10.2 ± 3.05%
- Paw Withdrawal Latency (sec) (mean ± S.E.M.) [2, 7]: 11.4 ± 0.54 s
- Paw Withdrawal Latency (sec) (mean ± S.E.M.) ([2]; 10 mg/kg PO, baseline (prior to drug administration)): 13.2 ± 0.72 s
- % Change from Baseline (mean ± S.E.M.) of Paw Withdrawal Latency [2, 8]: −47.6 ± 19.35%
- Paw Withdrawal Latency (sec) (mean ± S.E.M.) [2, 8]: 8.5 ± 0.89 s
- % Change from Baseline (mean ± S.E.M.) of Paw Withdrawal Latency [2, 9]: −24.0 ± 19.85%
- Paw Withdrawal Latency (sec) (mean ± S.E.M.) [2, 9]: 12.6 ± 1.33 s
- % Change from Baseline (mean ± S.E.M.) of Paw Withdrawal Latency [2, 10]: −10.2 ± 12.40%
- Paw Withdrawal Latency (sec) (mean ± S.E.M.) [2, 10]: 14.3 ± 0.80 s
- Paw Withdrawal Latency (sec) (mean ± S.E.M.) ([2]; 30 mg/kg PO, baseline (prior to drug administration)): 14.7 ± 1.29 s
- % WL (mean ± S.E.M.), percentage of weight borne on the burn-injured left hind paw ([3]; 1 h after administration): 50.0 ± 2.20 %
- % WL (mean ± S.E.M.), percentage of weight borne on the burn-injured left hind paw ([3]; 3 h after administration): 42.6 ± 1.91%
- % WL (mean ± S.E.M.), percentage of weight borne on the burn-injured left hind paw ([3]; 5 h after administration): 40.1 ± 2.72%
- % WL (mean ± S.E.M.), percentage of weight borne on the burn-injured left hind paw [3, 4]: 49.8 ± 0.31%
